Common to all, as to assay: CDK enzymology experiment in vitro, capillary mobility shift assay (MSA)
Holding throughout (type): biochemical

One experiment has as its target T1, CDK9 (Homo sapiens, UniProt P50750).
T1 construct: purchased Carna Company
The conditions noted are these: read-out: CDK9 (nM) inhibitory IC50. In outline: (§1)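 Recombinant kinases tested against peptide substrates in 1× kinase buffer, with compound added as a 100-fold DMSO stock. Top concentration 1, 10 or 30 μM, 3-fold dilutions over 10 points, in duplicate. Substrate conversion read by Caliper EZ Reader, normalised to no-enzyme and no-compound controls, and IC50 fitted with a variable-slope log(inhibitor)–response model.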

For a further experiment, the target named is T2, CDK1 (Homo sapiens, UniProt P06493).
T2 construct: purchased Carna Company
The conditions noted are these: read-out: CDK1 (nM) inhibitory IC50. In outline:
as §1

For another experiment, the target named is T3, CDK7 (Homo sapiens, UniProt P50613).
T3 construct: purchased Carna Company
The conditions noted are these: read-out: CDK7 (nM) inhibitory IC50. In outline: as §1

The target in the next experiment is T4, CDK4 (Homo sapiens, UniProt P11802).
T4 construct: purchased Carna Company
The conditions noted are these: read-out: CDK4 (nM) inhibitory IC50. In outline:
as §1

The target in another experiment is T5, CDK2 (Homo sapiens, UniProt P24941).
T5 construct: purchased Carna Company
The conditions noted are these: read-out: CDK2 (nM) inhibitory IC50. Put shortly: as §1

The next experiment deals with T6, CDK6 (Homo sapiens, UniProt Q00534).
T6 construct: purchased Carna Company
The conditions noted are these: read-out: CDK6 (nM) inhibitory IC50.

T2 sequence (P06493 whole entry): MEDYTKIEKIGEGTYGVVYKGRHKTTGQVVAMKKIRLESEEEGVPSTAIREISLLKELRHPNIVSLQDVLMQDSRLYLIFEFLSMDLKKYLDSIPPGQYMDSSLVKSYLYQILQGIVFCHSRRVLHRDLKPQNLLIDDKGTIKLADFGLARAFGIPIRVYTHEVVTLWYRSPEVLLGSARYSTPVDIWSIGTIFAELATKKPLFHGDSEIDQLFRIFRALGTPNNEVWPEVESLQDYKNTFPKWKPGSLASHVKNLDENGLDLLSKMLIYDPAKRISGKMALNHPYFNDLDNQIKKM
T2 sequence (P14635 whole entry partner): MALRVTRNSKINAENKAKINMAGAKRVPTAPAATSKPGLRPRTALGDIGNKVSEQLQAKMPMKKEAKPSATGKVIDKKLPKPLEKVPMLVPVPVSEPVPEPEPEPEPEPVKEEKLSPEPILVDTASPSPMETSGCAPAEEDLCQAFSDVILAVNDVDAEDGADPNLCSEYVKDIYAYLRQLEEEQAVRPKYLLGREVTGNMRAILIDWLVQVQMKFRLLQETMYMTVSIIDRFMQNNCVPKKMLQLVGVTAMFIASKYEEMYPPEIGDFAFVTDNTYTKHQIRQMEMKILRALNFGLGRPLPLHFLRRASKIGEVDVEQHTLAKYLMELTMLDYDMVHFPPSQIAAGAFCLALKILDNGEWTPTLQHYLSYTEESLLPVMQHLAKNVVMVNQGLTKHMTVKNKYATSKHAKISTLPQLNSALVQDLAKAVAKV
T1 sequence (P50750 whole entry): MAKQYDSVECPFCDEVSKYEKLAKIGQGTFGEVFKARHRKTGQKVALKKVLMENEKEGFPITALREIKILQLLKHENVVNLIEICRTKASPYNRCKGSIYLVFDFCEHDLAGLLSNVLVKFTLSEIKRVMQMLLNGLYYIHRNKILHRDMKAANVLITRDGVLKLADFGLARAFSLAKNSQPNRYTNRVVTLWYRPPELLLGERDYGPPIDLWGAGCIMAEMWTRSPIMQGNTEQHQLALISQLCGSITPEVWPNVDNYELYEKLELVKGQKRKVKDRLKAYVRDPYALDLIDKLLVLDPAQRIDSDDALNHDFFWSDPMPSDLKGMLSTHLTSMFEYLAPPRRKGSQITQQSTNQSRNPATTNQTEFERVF
T1 sequence (O60563 whole entry partner): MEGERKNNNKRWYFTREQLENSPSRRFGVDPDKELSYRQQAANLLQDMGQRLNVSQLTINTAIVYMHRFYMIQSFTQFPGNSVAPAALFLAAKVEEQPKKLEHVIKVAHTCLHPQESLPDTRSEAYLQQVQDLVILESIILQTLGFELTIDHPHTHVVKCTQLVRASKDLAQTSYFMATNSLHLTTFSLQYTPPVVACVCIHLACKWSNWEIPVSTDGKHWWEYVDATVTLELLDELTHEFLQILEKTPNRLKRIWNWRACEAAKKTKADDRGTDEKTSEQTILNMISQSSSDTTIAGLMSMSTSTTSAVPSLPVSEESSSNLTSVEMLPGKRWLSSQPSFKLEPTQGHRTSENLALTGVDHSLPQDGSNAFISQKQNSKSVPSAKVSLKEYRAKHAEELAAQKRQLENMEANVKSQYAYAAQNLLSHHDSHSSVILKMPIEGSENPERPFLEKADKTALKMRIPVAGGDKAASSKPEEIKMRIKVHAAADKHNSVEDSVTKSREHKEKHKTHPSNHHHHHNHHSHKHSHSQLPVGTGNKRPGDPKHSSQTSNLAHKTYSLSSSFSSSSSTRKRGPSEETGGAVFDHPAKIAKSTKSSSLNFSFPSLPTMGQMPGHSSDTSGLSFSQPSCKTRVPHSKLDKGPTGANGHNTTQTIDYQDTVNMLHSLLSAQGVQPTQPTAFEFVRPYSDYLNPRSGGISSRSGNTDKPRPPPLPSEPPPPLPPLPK
T3 sequence (P50613 whole entry): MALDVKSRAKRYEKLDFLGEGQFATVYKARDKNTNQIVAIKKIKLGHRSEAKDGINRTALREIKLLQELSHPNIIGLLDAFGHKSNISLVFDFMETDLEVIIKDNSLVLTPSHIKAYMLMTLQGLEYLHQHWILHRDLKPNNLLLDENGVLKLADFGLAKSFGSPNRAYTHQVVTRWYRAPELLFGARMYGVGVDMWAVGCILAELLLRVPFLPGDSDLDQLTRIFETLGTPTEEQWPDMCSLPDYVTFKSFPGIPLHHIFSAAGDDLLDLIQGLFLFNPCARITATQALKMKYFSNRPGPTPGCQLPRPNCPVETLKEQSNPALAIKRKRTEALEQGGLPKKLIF
T3 sequence (P51946 whole entry partner): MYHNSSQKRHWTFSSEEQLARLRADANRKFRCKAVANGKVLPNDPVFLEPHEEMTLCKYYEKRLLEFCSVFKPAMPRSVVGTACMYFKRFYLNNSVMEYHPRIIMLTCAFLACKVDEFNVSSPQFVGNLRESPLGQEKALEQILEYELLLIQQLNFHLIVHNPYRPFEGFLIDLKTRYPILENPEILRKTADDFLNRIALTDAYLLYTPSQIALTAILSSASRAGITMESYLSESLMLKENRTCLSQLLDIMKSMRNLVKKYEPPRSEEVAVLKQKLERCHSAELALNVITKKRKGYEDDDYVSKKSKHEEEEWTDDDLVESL
T3 sequence (P51948 whole entry partner): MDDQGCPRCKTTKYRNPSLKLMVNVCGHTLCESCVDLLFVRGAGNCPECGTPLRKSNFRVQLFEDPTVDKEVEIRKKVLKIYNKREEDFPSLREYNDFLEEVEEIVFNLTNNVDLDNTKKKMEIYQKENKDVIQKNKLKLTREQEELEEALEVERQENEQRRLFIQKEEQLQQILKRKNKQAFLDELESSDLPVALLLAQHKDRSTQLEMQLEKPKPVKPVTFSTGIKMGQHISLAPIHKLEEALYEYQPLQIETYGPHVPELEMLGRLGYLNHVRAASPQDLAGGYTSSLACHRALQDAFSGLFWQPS
T6 sequence (Q00534 whole entry): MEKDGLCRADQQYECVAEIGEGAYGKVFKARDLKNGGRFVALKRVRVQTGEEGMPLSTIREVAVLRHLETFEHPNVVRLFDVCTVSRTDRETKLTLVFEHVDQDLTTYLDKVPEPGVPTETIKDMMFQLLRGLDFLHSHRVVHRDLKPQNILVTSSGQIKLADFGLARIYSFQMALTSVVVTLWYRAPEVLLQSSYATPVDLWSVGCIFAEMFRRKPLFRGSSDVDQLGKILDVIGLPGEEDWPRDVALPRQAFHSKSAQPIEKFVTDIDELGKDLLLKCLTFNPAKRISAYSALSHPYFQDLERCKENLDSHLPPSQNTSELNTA
T6 sequence (P30281 whole entry partner): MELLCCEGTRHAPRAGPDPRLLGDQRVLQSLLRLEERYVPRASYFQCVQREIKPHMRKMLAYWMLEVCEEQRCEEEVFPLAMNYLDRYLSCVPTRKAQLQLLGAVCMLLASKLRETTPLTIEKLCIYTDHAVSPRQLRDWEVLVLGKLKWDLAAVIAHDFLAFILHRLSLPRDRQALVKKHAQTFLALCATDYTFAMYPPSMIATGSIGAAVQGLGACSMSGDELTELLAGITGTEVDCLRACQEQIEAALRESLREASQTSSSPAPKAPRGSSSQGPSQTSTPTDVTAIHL
T4 sequence (P11802 whole entry): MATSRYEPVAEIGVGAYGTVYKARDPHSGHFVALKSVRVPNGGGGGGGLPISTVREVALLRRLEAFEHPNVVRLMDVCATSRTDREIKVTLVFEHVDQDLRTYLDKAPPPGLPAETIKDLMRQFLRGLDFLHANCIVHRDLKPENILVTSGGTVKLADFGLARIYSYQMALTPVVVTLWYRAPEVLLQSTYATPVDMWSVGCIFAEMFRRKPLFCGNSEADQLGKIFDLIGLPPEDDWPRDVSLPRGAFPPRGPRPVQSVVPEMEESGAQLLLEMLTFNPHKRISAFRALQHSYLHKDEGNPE
T4 sequence (P30281 whole entry partner): as the sequence (P30281 whole entry partner) above

What is called IC50 is the point on the concentration scale where inhibition reaches its midpoint. Take `CN(C)CCN(c1nc(NC2CCN(S(=O)(=O)c3cnn(C)c3)CC2)ncc1C#N)C1CCCC1` [Compound 148]: the IC50 was above 1000 nM at CDK9; 100 to 1000 nM on CDK1; 100 to 1000 nM at CDK7; 100 to 1000 nM at CDK4; 10 to 50 nM at CDK2; 100 to 1000 nM on CDK6.
As for `O=S(=O)(c1ccc([C@@H]2CCNC2)cc1)N1CCC(Nc2ncc(C(F)(F)F)c(O[C@H]3CCOC3)n2)CC1` (single isomer, unassigned) [Compound 151], the IC50 on CDK9 is 100 to 1000 nM; at CDK1, 10 to 50 nM; at CDK7 it was 10 to 50 nM; on CDK4 it was 0.5 to 2.5 nM; at CDK2, 0.5 to 2.5 nM; on CDK6 it was 0.5 to 2.5 nM.
For the compound `O=S(=O)(c1ccc(N2CCNCC2)nc1)N1CCC(Nc2ncc(C(F)(F)F)c(O[C@H]3CCOC3)n2)CC1` [Compound 153], the concentration for half-maximal inhibition (IC50) on CDK9 was 100 to 1000 nM; at CDK1, 2.5 to 10 nM; on CDK7, 2.5 to 10 nM; at CDK4 it was 0.5 to 2.5 nM; at CDK2, below 0.5 nM; on CDK6 it was 0.5 to 2.5 nM.
`Cn1cc(-c2ccc(S(=O)(=O)N3CCC(Nc4ncc(C#N)c(N[C@H]5CCOC5)n4)CC3)cc2)cn1` [Example 8, (S)-2-((1-((4-(1-Methyl-1H-pyrazol-4-yl)phenyl)sulfonyl)piperidin-4-yl)amino)-4-((tetrahydrofuran-3-yl)amino)pyrimidine-5-carbonitrile]: the IC50 at CDK9 is 100 to 1000 nM; on CDK1 it was 10 to 50 nM; at CDK7 it was 50 to 100 nM; on CDK4, 2.5 to 10 nM; at CDK2, 0.5 to 2.5 nM; at CDK6 it was 0.5 to 2.5 nM.
Take `C[C@H]1CN(c2ccc(S(=O)(=O)N3CCC(Nc4ncc(C(F)(F)F)c(O[C@H]5CCOC5)n4)CC3)cc2)C[C@H](C)N1` [Example 168]: the IC50 was 100 to 1000 nM at CDK9; 2.5 to 10 nM at CDK1; 2.5 to 10 nM on CDK7; 0.5 to 2.5 nM on CDK4; below 0.5 nM at CDK2; below 0.5 nM at CDK6.
On to `Cn1cnc(S(=O)(=O)N2CCC(Nc3ncc(C#N)c(NC4CCCC4)n3)CC2)c1` [Compound 34], for which the IC50 at CDK9 was in the range of 100 to 1000 nM; at CDK1 it was 10 to 50 nM; at CDK7, 100 to 1000 nM; at CDK4, 2.5 to 10 nM; on CDK2, 0.5 to 2.5 nM; at CDK6, 10 to 50 nM.
In the case of `O=S(=O)(c1ccc(N2CCNCC2)cc1)N1CCC(Nc2ncc(C(F)(F)F)c(O[C@H]3CCOC3)n2)CC1` [Example 116], the IC50 at CDK9 was 100 to 1000 nM; on CDK1, 2.5 to 10 nM; at CDK7, 10 to 50 nM; on CDK4, 0.5 to 2.5 nM; at CDK2 it was below 0.5 nM; at CDK6, 0.5 to 2.5 nM.
With `Cn1cc(S(=O)(=O)N2CCC(Nc3ncc(C#N)c(NC4CCCC4)n3)CC2)cn1` [Compound 31], the half-maximal inhibitory concentration (IC50) on CDK9 was in the range of 100 to 1000 nM; at CDK1 it was 50 to 100 nM; on CDK7 it was 100 to 1000 nM; at CDK4, 2.5 to 10 nM; at CDK2 it was 0.5 to 2.5 nM; on CDK6 it was 0.5 to 2.5 nM.
As to `O=S(=O)(c1ccc(C2CCNCC2)c(F)c1)N1CCC(Nc2ncc(C(F)(F)F)c(O[C@H]3CCOC3)n2)CC1` [Compound 122], the IC50 on CDK9 was 100 to 1000 nM; on CDK1, 10 to 50 nM; at CDK7, 10 to 50 nM; at CDK4, 0.5 to 2.5 nM; on CDK2 it was below 0.5 nM; on CDK6 it was 0.5 to 2.5 nM.
On to `O=S(=O)(c1ccc(N2CC3(CNC3)C2)cc1)N1CCC(Nc2ncc(C(F)(F)F)c(O[C@H]3CCOC3)n2)CC1` [Compound 144], for which the half-maximal inhibitory concentration (IC50) on CDK9 is 100 to 1000 nM; at CDK1, 2.5 to 10 nM; at CDK7, 2.5 to 10 nM; on CDK4, 0.5 to 2.5 nM; on CDK2, below 0.5 nM; on CDK6, 0.5 to 2.5 nM.
With `CN(C)C1CCN(c2ccc(S(=O)(=O)N3CCC(Nc4ncc(C(F)(F)F)c(O[C@H]5CCOC5)n4)CC3)cc2)CC1` [Compound 132], the half-inhibitory concentration (IC50) at CDK9 is 100 to 1000 nM; on CDK1, 2.5 to 10 nM; at CDK7 it was 10 to 50 nM; on CDK4, 0.5 to 2.5 nM; on CDK2, below 0.5 nM; at CDK6, 0.5 to 2.5 nM.
Turning to `O=S(=O)(c1ccc(C2=CCNCC2)cc1)N1CCC(Nc2ncc(C(F)(F)F)c(O[C@H]3CCOC3)n2)CC1` [Example 100, (S)-4-((Tetrahydrofuran-3-yl)oxy)-N-(1-((4-(1,2,3,6-tetrahydropyridin-4-yl)phenyl)sulfonyl)piperidin-4-yl)-5-(trifluoromethyl)pyrimidin-2-amine], the IC50 is 100 to 1000 nM on CDK9; 2.5 to 10 nM at CDK1; 2.5 to 10 nM on CDK7; 0.5 to 2.5 nM at CDK4; below 0.5 nM at CDK2; 0.5 to 2.5 nM on CDK6.
As to `Cc1cc(S(=O)(=O)N2CCC(Nc3ncc(C(F)(F)F)c(O[C@H]4CCOC4)n3)CC2)ccc1C1=CCNCC1` [Compound 154], the half-inhibitory concentration (IC50) at CDK9 lay within 100 to 1000 nM; on CDK1 it was 10 to 50 nM; on CDK7 it was 10 to 50 nM; at CDK4 it was 0.5 to 2.5 nM; at CDK2 it was 0.5 to 2.5 nM; at CDK6 it was 0.5 to 2.5 nM.
As to `O=S(=O)(c1ccc(C2=CCCNC2)cc1)N1CCC(Nc2ncc(C(F)(F)F)c(O[C@H]3CCOC3)n2)CC1` [Example 112, (S)-4-((Tetrahydrofuran-3-yl)oxy)-N-(1-((4-(1,2,5,6-tetrahydropyridin-3-yl)phenyl)sulfonyl)piperidin-4-yl)-5-(trifluoromethyl)pyrimidin-2-amine], the half-maximal inhibitory concentration (IC50) is 100 to 1000 nM at CDK9; 2.5 to 10 nM on CDK1; 2.5 to 10 nM on CDK7; 0.5 to 2.5 nM at CDK4; below 0.5 nM on CDK2; 0.5 to 2.5 nM on CDK6.
Turning to `O=S(=O)(c1ccc(C2=CCNC2)cc1)N1CCC(Nc2ncc(C(F)(F)F)c(O[C@H]3CCOC3)n2)CC1` [Compound 146], the 50% inhibitory concentration (IC50) at CDK9 was 100 to 1000 nM; on CDK1, 2.5 to 10 nM; at CDK7, 2.5 to 10 nM; at CDK4, 0.5 to 2.5 nM; at CDK2, below 0.5 nM; on CDK6, 0.5 to 2.5 nM.
As for `Cn1cc(-c2ccc(S(=O)(=O)N3CCC(Nc4ncc(C(F)(F)F)c(O[C@H]5CCOC5)n4)CC3)cc2)cn1` [Compound 142], the IC50 on CDK9 is 10 to 50 nM; on CDK1 it was 0.5 to 2.5 nM; at CDK7, 2.5 to 10 nM; on CDK4, 0.5 to 2.5 nM; at CDK2, below 0.5 nM; at CDK6 it was 0.5 to 2.5 nM.
Take `O=S(=O)(c1cnn(CCO)c1)N1CCC(Nc2ncc(C(F)(F)F)c(O[C@H]3CCOC3)n2)CC1` [Example 27]: the IC50 at CDK9 was 100 to 1000 nM; on CDK1, 2.5 to 10 nM; at CDK7, 10 to 50 nM; at CDK4 it was 2.5 to 10 nM; on CDK2, below 0.5 nM; at CDK6 it was 10 to 50 nM.
Turning to `N#Cc1cnc(NC2CCN(S(=O)(=O)c3ccc(C4=CCNCC4)cc3)CC2)nc1NC1CCCC1` [Example 15, 4-(Cyclopentylamino)-2-((1-((4-(1,2,3,6-tetrahydropyridin-4-yl)phenyl)sulfonyl)piperidin-4-yl)amino)pyrimidine-5-carbonitrile], the IC50 at CDK9 lay in the range of 100 to 1000 nM; at CDK1, 10 to 50 nM; on CDK7 it was 10 to 50 nM; at CDK4 it was 0.5 to 2.5 nM; at CDK2 it was 0.5 to 2.5 nM; at CDK6 it was 0.5 to 2.5 nM.
Turning to `O=S(=O)(c1ccc(N2CCNC(C(F)(F)F)C2)cc1)N1CCC(Nc2ncc(C(F)(F)F)c(O[C@H]3CCOC3)n2)CC1` (stereo partly drawn) [Compound 147], the IC50 was in the range of 50 to 100 nM on CDK9; 2.5 to 10 nM on CDK1; 10 to 50 nM at CDK7; 0.5 to 2.5 nM at CDK4; 0.5 to 2.5 nM at CDK2; 0.5 to 2.5 nM on CDK6.
As to `O=S(=O)(c1ccc([C@H]2CCCNC2)cc1)N1CCC(Nc2ncc(C(F)(F)F)c(O[C@H]3CCOC3)n2)CC1` (single isomer, unassigned) [Example 115], the IC50 at CDK9 is 100 to 1000 nM; at CDK1 it was 2.5 to 10 nM; on CDK7, 2.5 to 10 nM; on CDK4 it was 0.5 to 2.5 nM; on CDK2, below 0.5 nM; on CDK6, 0.5 to 2.5 nM.
For `O=S(=O)(c1ccc([C@H]2CCNC2)cc1)N1CCC(Nc2ncc(C(F)(F)F)c(O[C@H]3CCOC3)n2)CC1` (single isomer, unassigned) [Compound 152], the IC50 lay within 100 to 1000 nM at CDK9; 2.5 to 10 nM at CDK1; 10 to 50 nM on CDK7; 0.5 to 2.5 nM on CDK4; 0.5 to 2.5 nM at CDK2; 0.5 to 2.5 nM on CDK6.
Regarding `Cn1cc(S(=O)(=O)N2CCC(Nc3ncc(C(F)(F)F)c(O[C@H]4CCOC4)n3)CC2)cn1` [Example 7, (S)—N-(1-((1-Methyl-1H-pyrazol-4-yl)sulfonyl)piperidin-4-yl)-4-((tetrahydrofuran-3-yl)oxy)-5-(trifluoromethyl)pyrimidin-2-amine], the 50% inhibitory concentration (IC50) at CDK9 lay in the range of 100 to 1000 nM; on CDK1, 10 to 50 nM; on CDK7 it was 10 to 50 nM; on CDK4 it was 10 to 50 nM; on CDK2, 0.5 to 2.5 nM; at CDK6, 10 to 50 nM.

Source of the values: US20250009745A1, “CDK INHIBITOR” (SHANGHAI QILU PHARMACEUTICAL RESEARCH AND DEVELOPMENT …, priority 2021, published 2025).
